Data from ChEMBL document CHEMBL1201862, “PubChem BioAssay data set” (2004).
Active and inactive are the calls of the source.

Experiments:
[1] = luciferase reporter signal suppression in cells – H4 neuroglioma cells, luminescence, dose response (AID 1990); format: functional, cell-based
[2] = Luminescence Cell-Based Dose Response HTS to Identify Activators of 5'UTR Stem-Loop Driven Prion Protein mRNA Translation in H4-C Neuroglioblastoma Cells. [Related pubchem assays: 1829 (Project Summary), 1814 (Primary HTS)]; format: functional
[3] = alpha-synuclein stem-loop luciferase translation blockers – H4 neuroglioma cells, luminescence, confirmation (AID 1988); format: functional, cell-based
[4] = Luminescence Cell-Based Dose Response HTS to Identify Activators of Luciferase Translation or Activity in H4-C Neuroglioblastoma Cells. [Related pubchem assays: 1829 (Project Summary), 1814 (Primary HTS)]; format: functional
[5] = non-specific 3'UTR reporter inhibition in Clone20-Shn3RL – cell-based, Renilla luciferase, cherry-picked, counter-screen for Shn3 inhibitor project, dose response (AID 624133); format: functional
[6] = HEK-293T viability loss after treatment – luminescence, T-cell screen hits, cytotoxicity control for TCR NF-kB inhibitor project, dose response (AID 489026); format: functional, cell-based;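 further: cells exposed to compound about 14 hours before the viability readout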
[7] = Luminescence Cell-Based Dose Response HTS to Identify Inhibitors of Luciferase Translation or Activity in H4-C Neuroglioblastoma Cells. [Related pubchem assays: 1813 (Primary HTS), 1827 (Project Summary)]; format: functional
[8] = reduction of Shn3 3'UTR-driven luciferase in osteoblasts – cell-based, Clone20 osteoblasts, firefly luciferase, cherry-picked, dose response (AID 624132); format: functional;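 further: firefly luciferase luminescence from reporter carrying the Shn3 3'UTR in osteoblasts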
[9] = loss of viability in HepG2 cells – cell-based, CellTiter-Glo, cherry-picked, cytotoxicity control for Shn3 inhibitor project, dose response (AID 624134); format: functional
[10] = Luminescence Cell-Based Dose HTS Response to Identify Inhibitors of 5'UTR Stem-Loop Driven Prion Protein mRNA Translation in H4-C Neuroglioblastoma Cells. [Related pubchem assays (depositor defined):AID1814, AID1827]; format: functional
[11] = Luminescence Cell-Based Dose Response HTS to Identify Inhibitors of 5'UTR Stem-Loop Driven Prion Protein mRNA Translation in H4 Neuroglioblastoma Cells. [Related pubchem assays: 1827 (Project Summary), 1813 (Primary HTS)]; format: functional
[12] = Luminescence Cell-Based Dose Retest to Confirm Activators of 5'UTR Stem-Loop Driven Alpha-Synuclein mRNA Translation in H4 Neuroglioblastoma Cells. [Related pubchem assays (depositor defined):AID1813, AID1829]; format: functional
[13] = Luminescence Cell-Based Dose Confirmation HTS to Identify Inhibitors of 5'UTR Stem-Loop Driven Alpha-Synuclein mRNA Translation in H4 Neuroglioblastoma Cells. [Related pubchem assays: 1827 (Project Summary), 1813 (Primary HTS)]; format: functional
[14] = toxicity toward cultured mammalian cells – cell-based, plate reader, cherry-pick samples, cytotoxicity control, dose response (AID 504397); format: functional
[15] = target: Trypsin (Sus scrofa, UniProt P00761); assay: trypsin protease activity blockade – biochemical, quenched peptide fluorescence, cherry-pick, selectivity assay for Rce1 protease inhibitor project, dose response (AID 488789)
Chain of Trypsin (P00761 whole entry): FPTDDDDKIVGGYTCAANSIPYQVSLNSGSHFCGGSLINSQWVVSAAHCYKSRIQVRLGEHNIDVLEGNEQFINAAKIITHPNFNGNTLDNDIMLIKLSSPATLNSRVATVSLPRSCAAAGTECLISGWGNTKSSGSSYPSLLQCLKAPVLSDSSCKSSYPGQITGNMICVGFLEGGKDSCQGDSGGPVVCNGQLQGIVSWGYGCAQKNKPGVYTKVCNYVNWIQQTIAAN

[16] = target: T1, CAAX prenyl protease 2 (Saccharomyces cerevisiae S288c, UniProt Q03530); format: biochemical
T1 sequence (Q03530 whole entry): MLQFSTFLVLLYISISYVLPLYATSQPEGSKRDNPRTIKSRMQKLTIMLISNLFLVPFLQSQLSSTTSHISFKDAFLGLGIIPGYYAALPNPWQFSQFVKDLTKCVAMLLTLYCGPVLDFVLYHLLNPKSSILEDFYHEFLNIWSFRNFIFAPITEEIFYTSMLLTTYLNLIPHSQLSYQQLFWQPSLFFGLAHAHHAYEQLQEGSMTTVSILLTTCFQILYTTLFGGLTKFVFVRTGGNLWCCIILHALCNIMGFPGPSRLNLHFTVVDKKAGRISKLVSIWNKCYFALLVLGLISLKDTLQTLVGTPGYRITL

[17] = target: Sphingosine 1-phosphate receptor 2 (Homo sapiens, UniProt O95136); assay: (§1) Late-stage fluorescence-based dose-response cell-based assay to identify agonists of the Sphingosine 1-Phosphate Receptor 4 (S1P4): Sphingosine 1-Phosphate Receptor 2 (S1P2) counterscreen assay. [Related pubchem assays (depositor defined):AID1509, AID1523, AID1563, AID1686, AID1701, AID1801, AID463107, AID463225, AID504400]; format: functional
Chain of Sphingosine 1-phosphate receptor 2 (O95136 whole entry): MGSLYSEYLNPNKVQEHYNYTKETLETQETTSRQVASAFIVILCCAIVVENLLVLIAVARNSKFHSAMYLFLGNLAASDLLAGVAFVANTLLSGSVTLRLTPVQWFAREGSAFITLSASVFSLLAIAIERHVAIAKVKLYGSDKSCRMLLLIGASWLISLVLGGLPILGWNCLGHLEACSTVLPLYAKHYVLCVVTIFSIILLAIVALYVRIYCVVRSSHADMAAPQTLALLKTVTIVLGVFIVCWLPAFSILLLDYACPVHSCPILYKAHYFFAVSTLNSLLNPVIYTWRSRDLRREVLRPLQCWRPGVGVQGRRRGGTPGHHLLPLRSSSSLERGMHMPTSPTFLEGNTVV

[18] = target: Sphingosine 1-phosphate receptor 5 (Homo sapiens, UniProt Q9H228); assay: as §1, with “5 (S1P5)” for “2 (S1P2)”; format: functional
Chain of Sphingosine 1-phosphate receptor 5 (Q9H228 whole entry): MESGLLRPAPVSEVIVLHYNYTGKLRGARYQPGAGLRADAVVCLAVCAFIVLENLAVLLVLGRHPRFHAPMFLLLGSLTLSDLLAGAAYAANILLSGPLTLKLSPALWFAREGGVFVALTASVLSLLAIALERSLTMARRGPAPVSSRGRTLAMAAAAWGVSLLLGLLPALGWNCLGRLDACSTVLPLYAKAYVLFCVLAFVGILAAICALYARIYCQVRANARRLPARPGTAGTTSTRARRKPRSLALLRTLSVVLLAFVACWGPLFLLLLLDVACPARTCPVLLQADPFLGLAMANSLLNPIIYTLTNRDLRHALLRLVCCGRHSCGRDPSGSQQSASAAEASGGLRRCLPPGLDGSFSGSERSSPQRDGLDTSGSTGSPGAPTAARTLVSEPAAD

[19] = target: Sphingosine 1-phosphate receptor 1 (Homo sapiens, UniProt P21453); assay: as §1, with “1 (S1P1)” for “2 (S1P2)”; format: functional
Chain of Sphingosine 1-phosphate receptor 1 (P21453 whole entry): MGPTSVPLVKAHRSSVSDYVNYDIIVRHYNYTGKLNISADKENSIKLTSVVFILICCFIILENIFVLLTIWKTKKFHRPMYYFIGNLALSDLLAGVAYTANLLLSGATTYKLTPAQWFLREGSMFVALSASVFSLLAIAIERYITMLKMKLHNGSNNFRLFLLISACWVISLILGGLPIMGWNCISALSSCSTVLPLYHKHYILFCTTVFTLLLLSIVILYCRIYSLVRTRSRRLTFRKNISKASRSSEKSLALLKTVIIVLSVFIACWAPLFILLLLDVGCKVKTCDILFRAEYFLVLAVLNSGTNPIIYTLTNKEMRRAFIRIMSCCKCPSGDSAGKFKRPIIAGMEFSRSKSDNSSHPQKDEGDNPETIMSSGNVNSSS

[20] = target: Sphingosine 1-phosphate receptor 3 (Homo sapiens, UniProt Q99500); assay: as §1, with “3 (S1P3)” for “2 (S1P2)”; format: functional
Chain of Sphingosine 1-phosphate receptor 3 (Q99500 whole entry): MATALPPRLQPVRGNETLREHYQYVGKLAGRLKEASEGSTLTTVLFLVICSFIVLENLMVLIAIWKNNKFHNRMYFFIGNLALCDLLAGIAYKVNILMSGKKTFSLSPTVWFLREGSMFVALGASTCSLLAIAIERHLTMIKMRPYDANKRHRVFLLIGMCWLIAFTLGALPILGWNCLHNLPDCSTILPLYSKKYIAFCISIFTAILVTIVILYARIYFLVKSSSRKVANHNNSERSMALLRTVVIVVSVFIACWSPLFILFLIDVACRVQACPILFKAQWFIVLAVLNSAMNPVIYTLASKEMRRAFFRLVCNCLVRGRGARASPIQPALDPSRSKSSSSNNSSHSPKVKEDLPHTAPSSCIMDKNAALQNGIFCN

[21] = target: T2, Cannabinoid receptor 2 (Homo sapiens, UniProt P34972); assay: SAR analysis of antagonists of the Cannabinoid Receptor 2 using an Image-Based Assay - Set 3. [Related pubchem assays (depositor defined):AID2013, AID2026]; format: functional
T2 sequence (P34972 whole entry): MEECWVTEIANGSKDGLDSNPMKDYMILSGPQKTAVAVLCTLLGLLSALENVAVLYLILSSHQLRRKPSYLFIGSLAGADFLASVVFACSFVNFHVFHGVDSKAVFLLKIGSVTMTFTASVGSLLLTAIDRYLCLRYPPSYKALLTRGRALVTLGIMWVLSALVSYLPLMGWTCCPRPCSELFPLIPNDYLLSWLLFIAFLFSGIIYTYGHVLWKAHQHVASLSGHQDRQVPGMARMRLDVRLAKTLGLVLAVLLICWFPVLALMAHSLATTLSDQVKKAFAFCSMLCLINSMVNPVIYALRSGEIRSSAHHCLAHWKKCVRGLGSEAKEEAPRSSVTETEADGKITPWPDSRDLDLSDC

[22] = target: T3, Cannabinoid receptor 1 (Homo sapiens, UniProt P21554); assay: SAR analysis of antagonists of the Cannabinoid Receptor 1 using an Image-Based Assay - Set 4. [Related pubchem assays (depositor defined):AID2013, AID2026]; format: functional
T3 sequence (P21554 whole entry): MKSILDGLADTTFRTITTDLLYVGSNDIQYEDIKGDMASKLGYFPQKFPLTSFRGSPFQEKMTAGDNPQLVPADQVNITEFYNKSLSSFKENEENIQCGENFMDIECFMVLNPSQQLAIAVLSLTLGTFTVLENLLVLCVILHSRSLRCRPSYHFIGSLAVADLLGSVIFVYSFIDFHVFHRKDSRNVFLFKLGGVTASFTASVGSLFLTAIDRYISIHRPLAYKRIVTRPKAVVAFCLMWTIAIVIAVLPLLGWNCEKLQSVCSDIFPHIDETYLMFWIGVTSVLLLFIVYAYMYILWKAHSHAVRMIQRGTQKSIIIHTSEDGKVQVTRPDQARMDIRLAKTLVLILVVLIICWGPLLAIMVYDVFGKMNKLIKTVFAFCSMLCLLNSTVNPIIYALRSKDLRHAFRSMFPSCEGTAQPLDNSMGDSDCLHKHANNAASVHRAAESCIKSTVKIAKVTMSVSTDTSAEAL

[23] = target: T4, G-protein coupled receptor 35 (Homo sapiens, UniProt Q9HC97); assay: SAR analysis of Agonists of the GPR35 Receptor using an Image-Based Assay - Set 4. [Related pubchem assays (depositor defined):AID2013, AID2026]; format: functional
T4 sequence (Q9HC97 whole entry): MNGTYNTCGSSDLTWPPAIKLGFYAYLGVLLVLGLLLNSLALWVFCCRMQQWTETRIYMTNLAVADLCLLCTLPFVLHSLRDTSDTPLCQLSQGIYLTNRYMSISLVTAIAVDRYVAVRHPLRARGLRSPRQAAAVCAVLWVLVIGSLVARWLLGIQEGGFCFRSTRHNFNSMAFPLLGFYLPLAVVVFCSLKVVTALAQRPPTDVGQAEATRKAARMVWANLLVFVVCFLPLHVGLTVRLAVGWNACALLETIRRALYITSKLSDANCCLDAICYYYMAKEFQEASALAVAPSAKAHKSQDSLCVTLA

[24] = target: T3, Cannabinoid receptor 1; assay: SAR analysis of agonists of the Cannabinoid Receptor 1 using an Image-Based Assay - Set 4. [Related pubchem assays (depositor defined):AID2013, AID2026]; format: functional
[25] = target: T4, G-protein coupled receptor 35; assay: SAR analysis of Antagonists of the GPR35 Receptor using an Image-Based Assay - Set 6. [Related pubchem assays (depositor defined):AID2013, AID2026]; format: functional
[26] = target: G-protein coupled receptor 55 (Homo sapiens, UniProt Q9Y2T6); assay: SAR Analysis of Selective Antagonists of GPR55 using an Image-Based Assay - Set 4. [Related pubchem assays (depositor defined):AID2013, AID2026]; format: functional;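 further: antagonism of response to 5 µM lysophosphatidylinositol agonist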
Chain of G-protein coupled receptor 55 (Q9Y2T6 whole entry): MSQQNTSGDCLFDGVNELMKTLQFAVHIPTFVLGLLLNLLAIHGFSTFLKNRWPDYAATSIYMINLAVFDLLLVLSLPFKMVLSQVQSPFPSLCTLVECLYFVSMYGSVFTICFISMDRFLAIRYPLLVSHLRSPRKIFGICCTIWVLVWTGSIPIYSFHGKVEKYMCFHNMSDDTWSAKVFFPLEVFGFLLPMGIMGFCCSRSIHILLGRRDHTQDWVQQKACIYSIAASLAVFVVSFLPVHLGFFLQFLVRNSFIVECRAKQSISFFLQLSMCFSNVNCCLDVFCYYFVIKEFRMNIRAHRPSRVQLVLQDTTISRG

[27] = target: T2, Cannabinoid receptor 2; assay: SAR analysis of agonists of the Cannabinoid Receptor 2 using an Image-Based Assay - Set 3. [Related pubchem assays (depositor defined):AID2013, AID2026]; format: functional

In the case of `CCCOc1ccccc1C1CC(=O)Nc2cc3c(cc21)OCO3` (configuration not stated), the EC50 [1] is reported as 3.65 µM (inconclusive), the EC50 [2] is reported as 2.4 µM (inconclusive) and the EC50 [3] is reported as 0.158 µM (active). For the same compound, the EC50 [4] was 2.97 µM (inconclusive), the AC50 [5] was 15.3 µM (active) and the IC50 [6] was 60.1 µM (inactive). For the same compound, the EC50 [7] was 2.97 µM (active), the AC50 [8] was 5.72 µM (active) and the AC50 [9] was > 70 µM (inactive). The EC50 [10] was 2.4 µM (active), the EC50 [11] was > 120 µM (not active) and the EC50 [12] was 35.8 µM (inconclusive). The EC50 [13] was 35.8 µM (active).

In the case of `COc1cccc(C2CC(c3ccc(Br)cc3)=NN2C(=O)c2ccncc2)c1OC` (configuration not stated), the AC50 [14] is reported as 45.2 µM (active), the AC50 [15] is reported as 48.7 µM (active) and the AC50 [16] is reported as 3.7 µM (active).

With `Cc1ccc(OCCOc2c(Cl)cc(Cl)cc2Cl)c([N+](=O)[O-])n1` the EC50 [17] was > 50 µM (inactive), the EC50 [18] was > 50 µM (inactive) and the EC50 [19] was > 50 µM (inactive). For the same compound, the EC50 [20] was > 50 µM (inactive).

With `N=c1c(C(=O)NC2CCCCC2)cc2c(=O)n3ccccc3nc2n1C1CCCC1` the IC50 [21] was > 32 µM (inactive), the IC50 [22] was > 32 µM (inactive) and the EC50 [23] was > 32 µM (inactive). The EC50 [24] was > 32 µM (inactive), the IC50 [25] was > 32 µM (inactive) and the IC50 [26] was 29 µM (inactive). For the same compound, the EC50 [27] was > 32 µM (inactive).
